In US7186831B2, “5-halo-2-alkyl[1,2,4]triazolo[1,5-a]pyrimidin-7-amines” (priority 2001, dated 2007):

Assay: log P by HPLC
Assay type: physicochemical
Details: EEC directive 79/831 Annex V. A8 by HPLC (gradient method, acetonitrile/0.1% aqueous phosphoric acid)

SMILES	logP
Cc1nc2nc(Cl)c(-c3ccccc3F)c(NC3CCCCC3)n2n1 [compound 397]	3.43
C=C(C)CNc1c(-c2ccccc2Cl)c(Cl)nc2nc(C3CC3)nn12 [compound 495]	3.41
Cc1nc2nc(Cl)c(-c3c(F)cccc3F)c(N3CCCc4ccccc43)n2n1 [compound 446]	3.34
Cc1nc2nc(Cl)c(-c3ccccc3Cl)c(N3CCC(F)CC3)n2n1 [compound 402]	3.05
Cc1nc2nc(Cl)c(-c3ccccc3F)c(NOC(C)C)n2n1 [compound 378]	2.54
C=CCN(C)c1c(-c2c(F)cccc2Cl)c(Cl)nc2nc(C)nn12 [compound 273]	3.26
Cc1nc2nc(Cl)c(-c3c(F)cccc3F)c(N(C)C)n2n1 [compound 418]	2.37
Cc1nc2nc(Cl)c(-c3ccc(F)cc3F)c(N(C)CC#N)n2n1 [compound 412]	2.34
Cc1nc2nc(Cl)c(-c3ccc(F)cc3F)c(NC(C)CC(C)C)n2n1 (centres unmarked) [compound 301]	3.7
CCN(CC)c1c(-c2ccccc2F)c(Cl)nc2nc(C)nn12 [compound 387]	2.95
Cc1nc2nc(Cl)c(-c3c(F)cccc3F)c(N3CCC(O)CC3)n2n1 [compound 307]	1.83
Cc1nc2nc(Cl)c(-c3ccc(F)cc3F)c(NC3CCCC3)n2n1 [compound 405]	3.24
Cc1nc2nc(Cl)c(-c3ccc(F)cc3F)c(N3CCCC3C)n2n1 (centres unmarked) [compound 280]	3.14
CC(C)(C)CNc1c(-c2c(F)cccc2Cl)c(Cl)nc2nc(C3CC3)nn12 [compound 477]	4.08
CC1=CCCN(c2c(-c3ccc(F)cc3F)c(Cl)nc3nc(C4CC4)nn23)C1 [compound 512]	4.14
COC(=O)C1CCN(c2c(-c3ccc(F)cc3F)c(Cl)nc3nc(C)nn23)CC1 [compound 292]	2.78
CCOC(=O)CN(c1c(-c2ccc(F)cc2F)c(Cl)nc2nc(C)nn12)C1CC1 [compound 414]	3.29

Continued, values first:

logP	SMILES
3.6	CCCN(CC1CCCO1)c1c(-c2ccc(F)cc2F)c(Cl)nc2nc(C)nn12 (centres unmarked) [compound 357]
2.58	COCCN(C)c1c(-c2ccc(F)cc2F)c(Cl)nc2nc(C)nn12 [compound 352]
2.95	Cc1nc2nc(Cl)c(-c3ccc(F)cc3F)c(NC(C)C(F)(F)F)n2n1 (single isomer, unassigned) [compound 359]
2.03	CONc1c(-c2ccccc2F)c(Cl)nc2nc(C)nn12 [compound 376]
4.59	CCC1=CCN(c2c(-c3ccc(F)cc3F)c(Cl)nc3nc(C4CC4)nn23)CC1 [compound 511]
3.68	Cc1nc2nc(Cl)c(-c3c(F)cccc3Cl)c(N(C)CC(C)C)n2n1 [compound 276]
2.8	Cc1nc2nc(Cl)c(-c3ccccc3F)c(N3CC(C)OC(C)C3)n2n1 (centres unmarked) [compound 382]
3.64	CCN(CCOC)c1c(-c2c(F)cc(F)cc2F)c(Cl)nc2nc(C3CC3)nn12 [compound 470]
2.2	CC(=O)NC1CCN(c2c(-c3ccc(F)cc3F)c(Cl)nc3nc(C4CC4)nn23)CC1 [compound 516]
3.72	Cc1nc2nc(Cl)c(-c3c(F)cccc3Cl)c(N3CCC(C(F)(F)F)CC3)n2n1 [compound 261]
3.87	Fc1ccc(-c2c(Cl)nc3nc(C4CC4)nn3c2N2CCc3ccccc3C2)c(F)c1 [compound 522]
3.35	CC(C)Nc1c(-c2c(F)cc(F)cc2F)c(Cl)nc2nc(C3CC3)nn12 [compound 464]
4.16	Cc1nc2nc(Cl)c(-c3ccccc3F)c(NC(C)C3CCCCC3)n2n1 (centres unmarked) [compound 396]
3.29	CCN(CC1CCCO1)c1c(-c2c(F)cccc2Cl)c(Cl)nc2nc(C)nn12 (centres unmarked) [compound 268]
3.48	Cc1nc2nc(Cl)c(-c3ccccc3F)c(NC3CCC(C(F)(F)F)CC3)n2n1 (centres unmarked) [compound 400]
3.64	CC(C)CNc1c(-c2c(F)cccc2Cl)c(Cl)nc2nc(C3CC3)nn12 [compound 476]
2.41	Cc1nc2nc(Cl)c(-c3ccccc3F)c(NC3CC3)n2n1 [compound 390]
4.18	CN(CC1CC1(Cl)Cl)c1c(-c2ccc(F)cc2F)c(Cl)nc2nc(C3CC3)nn12 (centres unmarked) [compound 507]
3.55	Cc1nc2nc(Cl)c(-c3c(F)cccc3F)c(NC(C)CC(C)C)n2n1 (centres unmarked) [compound 330]
3.56	Cc1nc2nc(Cl)c(-c3ccc(F)cc3F)c(NC3CCC(C(F)(F)F)CC3)n2n1 (centres unmarked) [compound 409]
1.9	Cc1nc2nc(Cl)c(-c3ccc(F)cc3F)c(N3CCC(O)CC3)n2n1 [compound 282]

Same assay, conditions: HPLC, gradient method, acetonitrile/0.1% aqueous phosphoric acid; EEC directive 79/831 Annex V. A8

SMILES	logP
Fc1ccc(-c2c(Cl)nc3nc(C4CC4)nn3c2NC2CCCCC2C(F)(F)F)c(F)c1 (centres unmarked) [compound 715]	4.08
Fc1cc(F)c(-c2c(Cl)nc3nc(C(F)(F)F)nn3c2N2CCCCC2)c(F)c1 [compound 104]	4.46
Fc1ccc(-c2c(Cl)nc3nc(C(F)(F)F)nn3c2NC2CC2)c(F)c1 [compound 531]	3.49
Cc1nc2nc(Cl)c(-c3ccc(F)cc3Cl)c(N[C@@H](C)C(F)(F)F)n2n1 (single isomer, unassigned) [compound 642]	3.17
Cc1nc2nc(Cl)c(-c3ccc(F)cc3F)c(NCCC(F)(F)F)n2n1 [compound 195]	2.76
Fc1cccc(Cl)c1-c1c(Cl)nc2nc(C3CC3)nn2c1N1CCOCC1 [compound 709]	3.05
CC(C)Nc1c(-c2ccccc2Cl)c(Cl)nc2nc(C3CC3)nn12 [compound 17]	3.39
CN(Cc1ccco1)c1c(-c2ccc(F)cc2F)c(Cl)nc2nc(C(F)(F)F)nn12 [compound 543]	4.11
CCNc1c(-c2ccc(F)cc2F)c(Cl)nc2nc(C3CC3)nn12 [compound 712]	2.97
C#CCN(C)c1c(-c2c(F)cc(F)cc2F)c(Cl)nc2nc(C)nn12 [compound 149]	2.77
Cc1nc2nc(Cl)c(-c3c(F)cccc3F)c(NOCc3cccc(Cl)c3)n2n1 [compound 137]	3.21
CC1=CCCN(c2c(-c3c(F)cc(F)cc3F)c(Cl)nc3nc(C)nn23)C1 [compound 85]	3.57
Cc1nc2nc(Cl)c(-c3c(F)cccc3F)c(NC3CCCCC3)n2n1 [compound 186]	3.28
CC(C)CN(N)c1c(-c2c(F)cccc2F)c(Cl)nc2nc(C3CC3)nn12 [compound 754]	3.47
Cc1nc2nc(Cl)c(-c3c(F)cc(F)cc3F)c(NC(C)C(F)(F)F)n2n1 (centres unmarked) [compound 69]	3.04
Fc1ccc(-c2c(Cl)nc3nc(C4CC4)nn3c2NCC2CC2)c(F)c1 [compound 656]	3.26
Cc1nc2nc(Cl)c(-c3ccccc3Cl)c(N3CCC(O)C3)n2n1 (centres unmarked) [compound 245]	0.75
Fc1cccc(Cl)c1-c1c(Cl)nc2nc(C3CC3)nn2c1N1CCCC1C(F)(F)F (centres unmarked) [compound 703]	4.1
CCc1nc2nc(Cl)c(-c3c(F)cc(F)cc3F)c(NNC(C)C)n2n1 [compound 49]	3.05
CCCNc1c(-c2ccc(F)cc2F)c(Cl)nc2nc(C3CC3)nn12 [compound 649]	3.2
CN(C)c1c(-c2ccccc2Cl)c(Cl)nc2nc(C3CC3)nn12 [compound 36]	3.13
Cc1nc2nc(Cl)c(-c3c(F)cccc3F)c(N3CCCC3)n2n1 [compound 170]	2.61
CCCNc1c(-c2c(F)cc(F)cc2F)c(Cl)nc2nc(CC)nn12 [compound 74]	3.14

The next lines start with the values.

logP	SMILES
2.68	CCc1nc2nc(Cl)c(-c3c(F)cc(F)cc3F)c(NCCOC)n2n1 [compound 78]
4.42	CCN(Cc1ccco1)c1c(-c2ccc(F)cc2F)c(Cl)nc2nc(C(F)(F)F)nn12 [compound 549]
2.79	CN(CC#N)c1c(-c2ccc(F)cc2F)c(Cl)nc2nc(C3CC3)nn12 [compound 719]
3.28	CCOC(=O)CN(C)c1c(-c2ccc(F)cc2F)c(Cl)nc2nc(C3CC3)nn12 [compound 717]
2.8	Cc1nc2nc(Cl)c(-c3ccc(F)cc3Cl)c(NCC(F)(F)F)n2n1 [compound 766]
3.37	Cc1nc2nc(Cl)c(-c3c(F)cc(F)cc3F)c(NC(C)C(C)C)n2n1 (centres unmarked) [compound 134]
2.71	Cc1nc2nc(Cl)c(-c3c(F)cc(F)cc3F)c(NC(C)C)n2n1 [compound 26]
1.93	COC(=O)C(CO)Nc1c(-c2c(F)cc(F)cc2F)c(Cl)nc2nc(C)nn12 (centres unmarked) [compound 115]
2.84	Cc1nc2nc(Cl)c(-c3c(F)cccc3F)c(N3CCCCO3)n2n1 [compound 524]
3.17	Cc1nc2nc(Cl)c(-c3c(F)cccc3F)c(N3CCCCC3)n2n1 [compound 171]
4.4	C=CCN(CC)c1c(-c2ccc(F)cc2F)c(Cl)nc2nc(C(F)(F)F)nn12 [compound 548]
3.27	Cc1nc2nc(Cl)c(-c3ccccc3Cl)c(N3CCCC3C)n2n1 (centres unmarked) [compound 226]
2.95	Fc1ccc(-c2c(Cl)nc3nc(C4CC4)nn3c2NC2CC2)c(F)c1 [compound 655]
3.9	Cc1nc2nc(Cl)c(-c3c(F)cc(F)cc3F)c(N3CCCC(C)C3)n2n1 (centres unmarked) [compound 165]
1.43	CN1CCN(c2c(-c3ccc(F)cc3F)c(Cl)nc3nc(C4CC4)nn23)CC1 [compound 735]
2.46	Cc1nc2nc(Cl)c(-c3c(F)cccc3F)c(NOC(C)C)n2n1 [compound 144]
3.38	COCCNc1c(-c2c(F)cc(F)cc2F)c(Cl)nc2nc(C(F)(F)F)nn12 [compound 107]
3.23	CCN(CC1CCCO1)c1c(-c2ccccc2Cl)c(Cl)nc2nc(C)nn12 (centres unmarked) [compound 239]
5.18	CC1CC(C)CN(c2c(-c3ccc(F)cc3F)c(Cl)nc3nc(C(F)(F)F)nn23)C1 (centres unmarked) [compound 797]
4.3	CC1CCCCN1c1c(-c2ccc(F)cc2F)c(Cl)nc2nc(C3CC3)nn12 (centres unmarked) [compound 611]
4.1	CCCCN(CC)c1c(-c2ccccc2Cl)c(Cl)nc2nc(C)nn12 [compound 241]
3.8	Fc1ccc(-c2c(Cl)nc3nc(C(F)(F)F)nn3c2N2CCC3(CC2)OCCO3)c(F)c1 [compound 796]
